Laboratory results from PMC8409973, “Synthesis, antiproliferative and antitrypanosomal activities, and DNA binding of novel 6-amidino-2-arylbenzothiazoles” (Journal of Enzyme Inhibition and Medicinal Chemistry, 2021).
“Also recorded” adds a separate entry of the source. Read-outs that look alike come from different tables or passages of the source.

What was measured:
[1] = system: MCF-7 (human breast adenocarcinoma); test: Proliferation assay (MTT, 72 h) on MCF-7; assay type: cell-based; conditions: MCF7, MCF-7, 72 h
Method: (§1) Human cell lines SW620 (colorectal adenocarcinoma, metastatic), MCF-7 (human breast adenocarcinoma), CFPAC-1 (pancreatic adenocarcinoma), HeLa (cervical carcinoma), and HFF-1 (human foreskin fibroblasts) were obtained from the American Type Culture Collection (ATCC). Cells were cultured in a humidified atmosphere at 37 °C with 5% CO2. As a growth medium, Dulbecco’s modified Eagle medium (DMEM) was used with the addition of foetal bovine serum (10%), L-glutamine (2 mM), and antibiotics: streptomycin ([…]) and penicillin (100 U/ml).
(§2) Cells were seeded onto 96-well microtiter plates at a seeding density of 3000 cells/well for carcinoma cell lines, and 5000 cells/well for normal human fibroblasts. The next day, cells were treated with test agents at five different concentrations (0.01–100 µM) and further incubated for 72 h. […] 5-Fluorouracil (5-FU, 0.384 M fluorouracilum, Pliva 500 mg/10 ml) dissolved in physiological solution was used as a positive control. Following 72 h incubation, the MTT assay was performed and measured absorbances were transformed into a percentage of cell growth as described previously. Results were obtained from three independent experiments. IC50 values were calculated using linear regression analysis (FORECAST option taking into account the concentration range of two experimental points above and below IC50).

[2] = system: SW620 (colorectal adenocarcinoma, metastatic); test: Proliferation assay (MTT, 72 h) on SW620; assay type: cell-based; conditions: Homo sapiens, SW-620, SW620, 72 h
Method: as §1, §2

[3] = system: CFPAC-1 (pancreatic adenocarcinoma); test: Proliferation assay (MTT, 72 h) on CFPAC-1; assay type: cell-based; conditions: Homo sapiens, CFPAC-1, 72 h
Method: as §1, §2

[4] = system: HeLa (cervical carcinoma); test: Proliferation assay (MTT, 72 h) on HeLa; assay type: cell-based; conditions: Homo sapiens
Method: as §1, §2

[5] = system: WI-38 fibroblast cell line; test: Growth inhibition of WI-38 fibroblasts (control substance); assay type: cell-based; conditions: Homo sapiens; WI-38 fibroblast cell line (footnote c)
[6] = system: ctDNA; test: Thermal denaturation of ctDNA; assay type: binding, calf; conditions: r = [compound]/[polynucleotide] = 0.3, pH 7.0; error ±0.5 °C
Method: (§3) These solutions were used for measurements in an aqueous buffer (pH = 7, sodium cacodylate buffer, I = 0.05 mol dm^−3). Polynucleotides were purchased as noted: poly (dAdT)2 and calf thymus ctDNA (Sigma-Aldrich). Polynucleotides were dissolved in Na-cacodylate buffer, I = 0.05 mol dm^−3, pH = 7. The calf thymus ctDNA was additionally sonicated and filtered through a […]. Polynucleotide concentration was determined spectroscopically[50]^,[51] as the concentration of phosphates.
(§4) The UV/Vis spectra were recorded on a Varian Cary 100 Bio spectrophotometer using 1 cm path quartz cuvettes. Calibration experiments were performed at 25 °C and pH = 7 (I = 0.05 mol dm^−3, sodium cacodylate buffer). Absorption maxima and corresponding molar extinction coefficients (ε) of benzothiazole derivatives are given in Table S1 (Supplementary material). Thermal melting curves for DNA and their complexes with studied compounds were determined as previously described by following the absorption change at 260 nm as a function of temperature. The absorbance of the ligands was subtracted from every curve and the absorbance scale was normalised. Tm values are the midpoints of the transition curves determined from the maximum of the first derivative and checked graphically by the tangent method. The ΔTm values were calculated by subtracting Tm of the free nucleic acid from Tm of the complex. Every ΔTm value reported here was the average of at least two measurements. The error in ΔTm is ±0.5 °C.

[7] = system: L6 cells (a rat myoblast line); test: L6 cell proliferation (cytotoxicity, resazurin); assay type: cell-based; conditions: 144 h; rat myoblast L6, 6 days
[8] = system: calf thymus ctDNA; test: Fluorimetric titration with ctDNA; assay type: binding; conditions: for I/I0: fluorescence intensity of complex / starting intensity, ctDNA, pH 7.0; for LogKs: fluorescence titration with ctDNA, Scatchard, fixed n = 0.6, pH 7.0, sodium cacodylate I = 0.05 mol dm−3
Method: The calf thymus ctDNA was additionally sonicated and filtered through a […]. Polynucleotide concentration was determined spectroscopically[50]^,[51] as the concentration of phosphates. Fluorescence spectra were recorded on a Varian Cary Eclipse spectrophotometer at 25 °C using appropriate 1 cm path quartz cuvettes. […] In fluorimetric experiments, an excitation wavelength of λexc ≥300 nm was used to avoid the inner filter effect caused due to increasing absorbance of the polynucleotide. Emissions were determined in the range λem = 350–650 nm. Values for Ks were obtained by processing titration data using the Scatchard equation[52].

[9] = system: ctDNA; test: CD titration of ctDNA; assay type: binding, calf; conditions: for induced CD (ICD) signal with ctDNA: CD titration, pH 7.0, λ > 300 nm; for binding mode to ctDNA: concluded from ICD, ΔTm and binding constants
Method: as §3
CD spectra were recorded on a JASCO J815 spectrophotometer in 1 cm path quartz cuvettes. CD parameters: range = 500–220 nm, data pitch = 2, standard sensitivity, scanning speed = 200 nm/min, accumulation = 3–5. Titrations were performed at 25 °C and pH = 7 (I = 0.05 mol dm^−3, sodium cacodylate buffer). CD experiments were done by adding portions of the compound stock solution into the polynucleotide solution.

[10] = system: poly (dAdT)2; test: Thermal denaturation of p(dAdT)2; assay type: binding; conditions: r = [compound]/[polynucleotide] = 0.3, pH 7.0; error ±0.5 °C
Method: as §3, §4

[11] = system: HFF-1 (human foreskin fibroblasts); test: Proliferation assay (MTT, 72 h) on normal fibroblasts HFF-1; assay type: cell-based; conditions: HFF-1 normal fibroblasts
Method: as §1, §2

[12] = system: Bloodstream form T. b. brucei (strain 221); test: Antitrypanosomal screening (resazurin); assay type: cell-based; conditions: Trypanosoma brucei; for IC90: concentration that inhibited growth by 90%, mean ± SEM; for IC50: mean of triplicate ± SEM
Method: Resazurin (20 μl at 0.125 mg ml^−1) was added after 48 h, the plates were incubated for a further 16 h, and then read in a Spectramax plate reader, and data analysed using GraphPad Prism. Each drug was tested in triplicate.

[13] = system: Bloodstream form T. b. brucei (strain 221); conditions: read-out: T. brucei IC50; reference drug; ref Wilkinson et al.[54]; cited from earlier work

Structure (SMILES) | IC50 [1] [nM] | IC50 [2] [nM] | IC50 [3] [nM] | IC50 [4] [nM] | IC50 [5] [nM] | ΔTm ctDNA [6] [°C] | IC50 [7] [nM] | I/I0 [8] | LogKs [8] | induced CD (ICD) signal with ctDNA [9] | binding mode to ctDNA [9] | ΔTm p(dAdT)2 [10] [°C] | IC50 [11] [nM] | IC90 [12] [nM] | IC50 [12] [nM] | melting point [°C] | IC50 [13] [nM]
O=c1[nH]cc(F)c(=O)[nH]1 [5-FU, 5-Fluorouracil, reference compound] | 90 ± 10 | 6400 ± 220 | 6450 ± 660 | 47500 ± 1930 | 940 |  |  |  |  |  |  |  |  |  |  |  | 
N=C(N)c1ccc2nc(-c3ccc(OCc4cn(-c5ccc(Cl)cc5)nn4)cc3)sc2c1 [10b] | 870 ± 180 | 3050 ± 820 |  | 1240 ± 600 |  | 2.7 | 1460 ± 450 | 0.12 | 6.6 | small negative ICD signal | intercalation | 2.3 | 170 ± 130 | 810 ± 40 | 540 ± 130 |  | 
CS(=O)(=O)O.c1ccc(-n2cc(COc3nc4ccc(C5=NCCN5)cc4s3)nn2)cc1 [11a, 6-(4,5-Dihydro-1H-imidazol-3-ium-2-yl)-2-[(1-phenyl-1H-1,2,3-triazol-4-yl)methoxy] benzothiazole methanesulfonate] | 490 ± 10 | 460 ± 30 | 450 ± 10 | 570 ± 190 |  | 2.1 | < 200 | 0.18 | 6.8 | bisignate signal with maxima at 317 and 360 nm | dimer within the minor groove; also recorded: minor groove binding | 4.1 | 260 ± 20 | 280 ± 30 | 230 ± 20 | 270 to 274 | 
CS(=O)(=O)O.Clc1ccc(-n2cc(COc3nc4ccc(C5=NCCN5)cc4s3)nn2)cc1 [11b, 6-(4,5-Dihydro-1H-imidazol-3-ium-2-yl)-2-{[1-(4-chlorophenyl)-1H-1,2,3-triazol-4-yl]methoxy}benzothiazole methanesulfonate] | 3120 ± 360 | 2840 ± 190 | 3090 ± 190 | 2610 ± 420 |  | 1.2 | < 2000 | 0.21 | 6.6 | small negative ICD signal | intercalation | 1.1 | 170 ± 90 | 120 ± 30 | 90 ± 20 | 263 to 266 | 
CS(=O)(=O)O.Clc1ccc(-n2cc(-c3nc4ccc(C5=NCCN5)cc4s3)nn2)cc1 [14b, 6-(4,5-Dihydro-1H-imidazol-3-ium-2-yl)-2-[1-(4-chlorophenyl)-1H-1,2,3-triazole-4-yl]benzothiazole methanesulfonate] | 1770 ± 180 | 350 ± 130 | 2420 ± 60 | 480 ± 10 |  | 2.2 | < 2000 | 0.45 | 5.0 |  |  | 3.6 | 360 ± 180 | 480 ± 20 | 320 ± 60 | > 300 | 
CS(=O)(=O)O.Clc1ccc(-n2cc(-c3nc4ccc(C5=NCCCN5)cc4s3)nn2)cc1 [15b, 6-(3,4,5,6-Tetrahydropyrimidin-1-ium-2-yl)-2-[1-(4-chlorophenyl)-1H-1,2,3-triazole-4-yl]benzothiazole methanesulfonate] | 2100 ± 1090 | 890 ± 310 | 710 ± 170 | 2270 ± 80 |  | 0 | 7690 ± 160 | 0.35 | 5.4 | positive induced CD spectra | minor groove binding mode | 5.4 | 740 ± 50 | 3840 ± 650 | 1120 ± 230 | 288 to 293 | 
CC1CS(=O)(=O)CCN1/N=C/c1ccc([N+](=O)[O-])o1 (centres unmarked) [Nifurtimox] |  |  |  |  |  |  |  |  |  |  |  |  |  |  |  |  | 2000 ± 240
